The values below come from ChEMBL document CHEMBL1201862, “PubChem BioAssay data set” (2004).

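Five compound concentrations were applied to cells in 96-well plates for 48 hours; endpoints were derived by simple linear interpolation of the resulting dose-response curve. GI50 is the concentration that inhibits growth by half.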 Activity calls are given as the source filed them. No stated cut-off is given here; in the data, active = GI50 up to about 1.1 µM and inactive = higher. Bounds are passed on as bounds.

Test systems include K562; SF-539; HCT-15; OVCAR-5; OVCAR-4; EKVX; DU-145; RXF 393; SR; 786-0; PC-3; NCI-H226; HCC 2998; IGROV-1; CAKI-1; SK-MEL-2; NCI-H23; CCRF-CEM; OVCAR-3; MDA-MB-231.
Holding throughout (assay): NCI-60 cell line screen, 48 h

For the compound `CC(C)(C)C#CI1OC(=O)c2ccccc21`, the GI50 was 1.91 µM (inactive) with K562; 2.82 µM (inactive) in the assay with SF-539; 3.38 µM with HCT-15; 7.67 µM (inactive) in the assay on OVCAR-5; 2.72 µM (inactive) in the assay with OVCAR-4; 4.89 µM (inactive) in the assay on EKVX. Also, the GI50 was 6.08 µM (inactive) in the assay on DU-145; 3.62 µM (inactive) in the assay on RXF 393; 0.74 µM (active) in the assay with SR; 3.37 µM (inactive) with 786-0; 6.31 µM (inactive) in the assay on PC-3; 4.63 µM (inactive) in the assay on NCI-H226. For the same compound, the GI50 with HCC 2998 is 9.53 µM (inactive); in the assay with IGROV-1 it was 3.47 µM (inactive); in the assay with CAKI-1, 3.11 µM (inactive); in the assay with SK-MEL-2 it was 10.7 µM (inactive); in the assay on NCI-H23, 3.48 µM (inactive); in the assay with CCRF-CEM it was 1.37 µM (inactive). Besides, the GI50 is 2.99 µM (inactive) with OVCAR-3 and 5.94 µM (inactive) with MDA-MB-231.

For `COc1ccc(-c2c3c(n(C4OC(COC(C)=O)C(OC(C)=O)C(OC(C)=O)C4OC(C)=O)c(=S)c2C#N)CCCC3)cc1` (stereo not given), the GI50 with K562 was 65.6 µM (inactive); in the assay on SF-539 it was 69.5 µM (inactive); with HCT-15, 41.5 µM; in the assay on OVCAR-5, > 100 µM (inactive); in the assay on OVCAR-4 it was 25.5 µM (inactive); in the assay on EKVX it was 53 µM (inactive). Besides, the GI50 in the assay with DU-145 is 44.9 µM (inactive); with RXF 393 it was 33.7 µM (inactive); in the assay on SR, > 100 µM (inactive); in the assay with 786-0, > 100 µM (inactive); in the assay with PC-3, 19.5 µM (inactive); in the assay with NCI-H226, > 100 µM (inactive). Besides, the GI50 with HCC 2998 was > 100 µM (inactive); in the assay on IGROV-1, 28.8 µM (inactive); in the assay with CAKI-1, 20.5 µM (inactive); with SK-MEL-2 it was 16.2 µM (inactive); in the assay with NCI-H23, 37.9 µM (inactive); in the assay on CCRF-CEM, 25.5 µM (inactive). Moreover, the results for the GI50 in the assay on OVCAR-3 and in the assay on MDA-MB-231 were 19.6 µM (inactive) and 55.8 µM (inactive), respectively.

Turning to `Cc1nc2c(o1)C(=O)c1ccccc1/C2=N/c1ccc(N2CCOCC2)cc1`, the GI50 is 3.28 µM (inactive) in the assay on K562; 2.49 µM (inactive) in the assay with SF-539; 3.66 µM in the assay with HCT-15; 18.2 µM (inactive) in the assay with OVCAR-5; 2.99 µM (inactive) in the assay on OVCAR-4; 7.73 µM (inactive) in the assay with EKVX. For the same compound, the GI50 was 3.31 µM (inactive) with DU-145; 0.421 µM (active) with RXF 393; 3.86 µM (inactive) in the assay on SR; 22.6 µM (inactive) in the assay on 786-0; 2.08 µM (inactive) in the assay with PC-3; 20.5 µM (inactive) in the assay with NCI-H226. For the same compound, the GI50 with HCC 2998 was 34.1 µM (inactive); in the assay on IGROV-1 it was 8.71 µM (inactive); in the assay with CAKI-1, 13.2 µM (inactive); in the assay on SK-MEL-2, 2.75 µM (inactive); with NCI-H23 it was 2.39 µM (inactive); in the assay with CCRF-CEM it was 4.57 µM (inactive). Besides, the GI50 was 1.69 µM (inactive) with OVCAR-3 and 2.7 µM (inactive) in the assay on MDA-MB-231.

Turning to `O=C(O)CN1CCNCCN(CC(=O)O)CCNCC1`, the GI50 in the assay on K562 is 3.85 µM (inactive); with SF-539, > 100 µM (inactive); in the assay on HCT-15 it was 9.29 µM; with OVCAR-5, > 85.1 µM (inactive); in the assay on OVCAR-4, > 100 µM (inactive); in the assay on EKVX, > 60.3 µM (inactive). Also, the GI50 is > 100 µM (inactive) with DU-145; > 100 µM (inactive) in the assay on RXF 393; 5.14 µM (inactive) in the assay with SR; > 42.2 µM (inactive) in the assay on 786-0; 19.9 µM (inactive) in the assay on PC-3; > 64.7 µM (inactive) in the assay on NCI-H226. The GI50 with HCC 2998 was > 82.2 µM (inactive); in the assay with IGROV-1, 24.3 µM (inactive); with CAKI-1, > 100 µM (inactive); with SK-MEL-2, > 100 µM (inactive); with NCI-H23 it was 44.4 µM (inactive); in the assay with CCRF-CEM, 4.8 µM (inactive). For the same compound, the GI50 in the assay on OVCAR-3 and in the assay on MDA-MB-231 was > 100 µM (inactive) in each case.

Turning to `Cc1cc2c(Br)cc(Br)c(O)c2nc1C(=O)c1ccccc1`, the GI50 with K562 is 10.4 µM (inactive); in the assay with SF-539 it was 19.1 µM (inactive); in the assay on HCT-15, 14 µM; with OVCAR-5, > 45.1 µM (inactive); in the assay with OVCAR-4 it was 29.3 µM (inactive); in the assay on EKVX, > 51.6 µM (inactive). Also, the GI50 was 17 µM (inactive) in the assay on DU-145; > 47.5 µM (inactive) in the assay with RXF 393; 14.9 µM (inactive) in the assay on SR; 10.2 µM (inactive) in the assay on 786-0; 13.4 µM (inactive) in the assay on PC-3; > 51.1 µM (inactive) in the assay on NCI-H226. In addition, the GI50 with HCC 2998 was 18.7 µM (inactive); with IGROV-1, 21 µM (inactive); in the assay on CAKI-1 it was 55.8 µM (inactive); with SK-MEL-2, > 61.1 µM (inactive); in the assay on NCI-H23, 13.1 µM (inactive); in the assay on CCRF-CEM, 8.11 µM (inactive). For the same compound, the GI50 was 20.3 µM (inactive) in the assay on OVCAR-3 and 20 µM (inactive) with MDA-MB-231.

Regarding `CCC(C)OC(=O)/C(Br)=C1/OC(=O)c2ccccc2-c2ccccc21` (stereo not given), the GI50 is 4.42 µM (inactive) in the assay with K562; 24 µM (inactive) in the assay on SF-539; 18 µM in the assay with HCT-15; 80 µM (inactive) in the assay with OVCAR-5; 62.5 µM (inactive) in the assay with OVCAR-4; > 100 µM (inactive) in the assay on EKVX. Also, the GI50 was > 100 µM (inactive) with DU-145; 9.75 µM (inactive) in the assay on RXF 393; > 10 µM (inactive) with SR; 48.6 µM (inactive) in the assay with 786-0; 31.8 µM (inactive) in the assay with PC-3; 55.2 µM (inactive) with NCI-H226. Also, the GI50 was 16.9 µM (inactive) in the assay with HCC 2998; > 10 µM (inactive) in the assay with IGROV-1; 43.4 µM (inactive) in the assay with CAKI-1; 24.2 µM (inactive) in the assay with SK-MEL-2; 50 µM (inactive) in the assay with NCI-H23; 4.78 µM (inactive) in the assay with CCRF-CEM. For the same compound, the results for the GI50 in the assay with OVCAR-3 and with MDA-MB-231 were 27.4 µM (inactive) and > 10 µM (inactive), respectively.

In the case of `COc1cc(C2c3cc4c(cc3OC(NCCc3ccccc3)C2C)OCO4)cc(OC)c1OC` (stereo not given), the GI50 is 0.269 µM (active) in the assay with K562; 0.286 µM (active) in the assay with SF-539; 0.385 µM in the assay with HCT-15; 1.75 µM (inactive) in the assay on OVCAR-5; 0.778 µM (active) with OVCAR-4; 1.56 µM (inactive) in the assay with EKVX. Also, the GI50 in the assay on DU-145 is 0.431 µM (active); in the assay on RXF 393 it was 0.203 µM (active); in the assay on SR it was 0.174 µM (active); in the assay on 786-0, 0.465 µM (active); in the assay on PC-3, 0.336 µM (active); with NCI-H226 it was 0.871 µM (active). Also, the GI50 in the assay with HCC 2998 was 0.282 µM (active); in the assay with IGROV-1, 0.367 µM (active); in the assay on CAKI-1 it was 0.291 µM (active); with SK-MEL-2, 0.393 µM (active); in the assay with NCI-H23, 0.413 µM (active); in the assay on CCRF-CEM, 0.343 µM (active). In addition, the GI50 with OVCAR-3 was 0.378 µM (active); with MDA-MB-231, 0.249 µM (active).
